Where “and” joins values, the source holds several entries; their conditions need not be identical. Equal values may be shown once. Read-outs that look alike come from different tables or passages of the source.
Assays:
[1] = tested on: house fly (Musca domestica); assay: Insecticidal test for house fly by intrathoracic injection; type: in vivo; conditions: for Musca domestica in vivo LD50: intrathoracic injection, mortality at 24 h
Description: The ability of azobenzene to regulate insecticidal activities remains unexplored. To better understand the activity changes induced by light, the efficacy before and after irradiation was tested by leaf-dip method for cowpea aphid (Aphis craccivora) and intrathoracic injection against house fly (Musca domestica)[46][47]. Against cowpea aphid, all the isomers had low activity and no significant difference was observed between two photo isomers (Supplementary Table S1 online). We attribute this observation to the poor solubility at the testing concentrations.
Thus, injection of chemicals into house fly was employed to evaluate their intrinsic activity (Table 2). House fly is a most commonly used indicator for both in vitro and in vivo insecticidal activity. Replacement of chloropyridinyl in IMI with AB leads to a deleterious effect on in vivo activity to house fly as exemplified by analogues AMI-1, 2 and 5 with LD50 values of more than 10 μg/g irrespective of irradiation or not. […] No obvious difference was observed between the trans and cis form of AMI-9.
House fly adults were anesthetized with carbon dioxide for 10 min and then were treated with the AMIs dissolved in distilled water or 10% DMSO aqueous solution by intrathoracic injection (0.4 μL for each fly). Twenty flies were treated for each dosage with duplicate samples. The mortality rates were counted twenty-four hours after treatment. Each treatment had three repetitions and the data subjected to probit analysis.

[2] = UV/Vis absorption of photoisomers; type: physicochemical; conditions: for λmax n-π* (cis): cis isomer; for λmax π-π* (trans): trans isomer
From the text: The photoswitchable behaviors of AMIs at room temperature were characterized by UV/Vis absorption, NMR spectroscopy and HPLC studies. […] Upon irradiation with ultraviolet (365 nm), a gradual intensity decrease at 327 nm and increase at 410–500 nm was detected corresponding to the π–π* and n–π* transition band, respectively (Fig. 3B). The reverse spectral changes were observed upon irradiation at 436 nm (data not shown). All the other compounds gave the similar spectral changes when illuminated with light. The proportions of E/Z isomer at the photostationary states before and after irradiation were determined by HPLC analysis (Table 1). Most of the compounds could produced more than 80% cis isomers upon irradiation. […] The photoisomerization of AMI-10 was further identified by ^1H NMR spectroscopy with the notable appearance of two double peaks at δ 7.25 and 6.85, respectively (Supplementary Fig. S1 online).
Varian Cary 100 UV-vis spectrophotometer was used for obtaining absorption (UV-Vis) spectra. The solutions of compounds were irradiated with a UV lamp (365 nm). The cis to trans photoisomeriation were performed with a light-emitting diode (blue light, 450 nm). The corresponding UV-Vis spectrums were collected in supplmentary files. The photostationary states were determined by high performance liquid chromatography (HPLC) measurements and the trans/cis ratios were calculated at the isosbestic points.

[3] = target: house fly brain nAChR; assay: nAChR binding in vitro, competitive inhibition of [3H]NMI binding; conditions: 1 nM [3H]NMI, house fly head membranes, read-out: Musca domestica in vitro IC50, [3H]NMI
Description: Tritium labeled nitromethylene analogue of IMI ([^3H]NMI) is a unique reporter for monitoring nAChR binding not only in vitro but also in vivo due to its extremely high binding potency. Here, the in vitro interaction of AMIs with house fly brain nAChR was measured by competitive inhibition of [^3H]NMI binding (Table 2). Photoisomers of AMI-1, 2, 5, and 6 had very poor ability to displacing [^3H]NMI binding (IC50 > 2000 nM) leading to difficulty for difference judgement. […] A 4-fold difference was achieved on AMI-4 and 10 upon photoirradiation. Compounds AMI-9 or AMI-10 have some similarities with the bis-IMI derivatives disclosed by Kagabu et al.[49][50][51]. […] Among various spacers investigated, the heptamethylene or furan-2,5-dimethylene was the optimal bridge. The N-PhN=NPh-N lengths for trans and cis isomers of AMI-9 or AMI-10 are about 12.29 Ǻ and 6.82 Ǻ or 12.59 Ǻ and 8.14 Ǻ, respectively. While for the bis-IMI linked by heptamethylene, the distance is 9.96 Ǻ, close to that of cis-AMI-10. The shorter or longer distance of the linker may decrease the activity. Furthermore, the lack of heteroatom in the AB linker which is important for stabilizing the interaction with the receptor further attenuated the activity.
House fly heads were collected after the fly adults frozen with liquid nitrogen were broken into body parts. Then the heads were homogenized in 0.1 mM EDTA, 0.32 M sucrose and 100 mM sodium phosphate (pH 7.4). The homogenate was treated by filtering through four layers of 64-μm mesh nylon screen. After centrifuging at 500 g for 30 min, the supernatant was collected and again filtered through using the method above. After centrifuging at 25,000 g for 60 min at 4 °C, the pellet was resuspended in binding buffer (mixture of 50 mM sodium chloride and 10 mM sodium phosphate, pH 7.4). These brain membranes were used fresh or stored for up to several weeks at −80 °C. Then 1 nM [^3H]NMI, varying concentrations of neonicotinoids and 300–500 μg membrane protein in a final volume of 500 μL was incubated at 22 °C for 60 min. The reaction mixture was filtered through Whatman GF/B glass-fiber filters prewetted by binding buffer using a Brandel M-24R Harvester (Gaithersburg, MD) to quantitate the bound [^3H]NMI, followed by two rinses each with binding buffer (5 mL) and final liquid scintillation. Nonspecific binding was determined with unlabeled NMI (20 μM). Specific binding was about 80–90% of total binding. The percentage inhibition was determined from two (compounds AMI-1, AMI-2, AMI-5, AMI-6 and azobenzene whose activities were extremely low) or three separate experiments each with triplicate samples. Half maximal inhibitory concentration (IC50) were determined by nonlinear regression analysis for logarithm of inhibitor concentration versus probit percentage inhibition.

[4] = Photoswitching cycles / constant irradiation (fatigue resistance); type: physicochemical; conditions: multiple cycles of photoisomerization or constant irradiation at 365 nm for 1 h

| Compound | Musca domestica in vivo LD50 ([1]; irradiated) | Musca domestica in vivo LD50 ([1]; nonirradiated) | λmax n-π* (cis) [2] [nm] | λmax π-π* (trans) [2] [nm] | IC50 ([3]; irradiated) [nM] | IC50 ([3]; nonirradiated) [nM] | photo bleaching or photo-oxidation [4] | poisoning sign in house fly ([1]; under the tested concentrations) | Musca domestica in vivo LD50 ([1]; irradiated, listed as 5) | Musca domestica in vivo LD50 ([1]; nonirradiated, listed as 5) |
| --- | --- | --- | --- | --- | --- | --- | --- | --- | --- | --- |
| 2-chloro-5-(((E)-2-(nitromethylene)-3-(2-((E)-phenyldiazenyl)benzyl)imidazolidin-1-yl)methyl)pyridine [AMI-6] | >10 µg/g | >10 µg/g | 433 | 322 | > 2000 | > 2000 |  |  |  |  |
| O=[N+]([O-])/N=C1\N(Cc2ccc(Cl)nc2)CCN1Cc1cccc(/N=N/c2ccccc2)c1 [AMI-3] | 4.4 ± 0.7 µg/g | 3.9 ± 0.5 µg/g | 431 | 317 | 1140 ± 106 | 250 ± 22 |  |  |  |  |
| O=[N+]([O-])/N=C1/N(Cc2ccc(/N=N/c3ccccc3)cc2)CCN1Cc1ccc(Cl)nc1 [AMI-4] | 9.2 ± 1.6 µg/g | 6.5 ± 1.0 µg/g | 433 | 322 | 1220 ± 98 | 818 ± 92 |  |  |  |  |
| O=[N+]([O-])/N=C1\N(Cc2ccc(Cl)nc2)CCN1Cc1cccc(/N=N/c2cccc(CN3CCN(Cc4ccc(Cl)nc4)/C3=N\[N+](=O)[O-])c2)c1 [AMI-9] | 3.0 ± 0.6 µg/g | 5.1 ± 0.8 µg/g | 429 | 319 | 1340 ± 154 | 1160 ± 141 |  |  |  |  |
| O=[N+]([O-])N=C1N(Cc2ccc(N=Nc3ccc(CN4CCN(Cc5ccc(Cl)nc5)C4=N[N+](=O)[O-])cc3)cc2)CCN1Cc1ccc(Cl)nc1 [AMI-10] | 0.5 µg/g and 0.5 ± 0.08 µg/g | 2.8 µg/g and 2.8 ± 0.4 µg/g | 434 | 325 | 112 ± 13 | 466 ± 55 | No photo bleaching or photo-oxidation could be observed |  |  |  |
| O=[N+]([O-])NC1=NCCN1Cc1ccc(Cl)nc1 [IMI, imidacloprid] | 0.05 ± 0.01 µg/g | 0.05 ± 0.01 µg/g |  |  | 28.8 ± 4 | 28.8 ± 4 |  |  |  |  |
| c1ccc(/N=N/c2ccccc2)cc1 [azobenzene] | >10 µg/g | >10 µg/g |  |  | > 2000 | > 2000 |  | no significant poisoning sign was detected |  |  |
| (E)-1-(3-(((E)-2-(nitromethylene)imidazolidin-1-yl)methyl)phenyl)-2-(3-(((Z)-2-(nitromethylene)imidazolidin-1-yl)methyl)phenyl)diazene [AMI-7] | 5.3 ± 1.0 µg/g | 7.9 ± 1.1 µg/g | 432 | 321 | 1730 ± 135 | 1860 ± 151 |  |  |  |  |
| (Z)-2-(nitromethylene)-1-(2-((E)-phenyldiazenyl)benzyl)imidazolidine [AMI-5] | >10 µg/g | >10 µg/g | 436 | 320 | > 2000 | > 2000 |  |  | more than 10 μg/g | more than 10 μg/g |

Source: publication PMC4593031, “Azobenzene Modified Imidacloprid Derivatives as Photoswitchable Insecticides: Steering Molecular Activity in a Controllable Manner” (Scientific Reports, 2015)
